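All cell lines were grown in 96-well plates and treated with compound for 48 hours. GI50: concentration for 50% inhibition of growth. At the TGI there is no net growth.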
What was measured:
Experiment in all cases: DTP human tumour cell line panel, 48 h
[1] = test system: SK-MEL-28 melanoma
[2] = test system: CAKI-1 renal
[3] = test system: NCI-H522 lung
[4] = test system: OVCAR-4 ovarian
[5] = test system: UACC-62 melanoma
[6] = test system: M14 melanoma
[7] = test system: K-562 leukemia
[8] = test system: EKVX NSCLC
[9] = test system: SK-MEL-5 melanoma
[10] = test system: SW-620 colon

Compound	TGI [1]	TGI [2]	TGI [3]	TGI [4]	TGI [5]	TGI [6]	TGI [7]	TGI [8]	TGI [9]	TGI [10]	GI50 [1]	GI50 [2]	GI50 [3]	GI50 [4]	GI50 [5]	GI50 [6]	GI50 [7]	GI50 [8]	GI50 [9]	GI50 [10]
CCCCCCCCCCCCCCCCOC(=O)c1cc(O)cc(C(=O)OCCCCCCCCCCCCCCCC)c1	> 100 µM	> 100 µM	> 100 µM	> 100 µM	> 100 µM	> 100 µM	> 100 µM	> 100 µM	> 100 µM	> 100 µM										
O=c1[nH]c2ccccc2n1-c1n[nH]c2ccccc12	> 100 µM	> 100 µM	48.7 µM	> 100 µM	96.7 µM	88.2 µM	> 100 µM	> 100 µM	35.9 µM	> 100 µM	38.8 µM	25.3 µM	19.7 µM	41.3 µM	33.6 µM	29.2 µM	31.3 µM	29.7 µM	16.9 µM	39.4 µM
O=C(Nc1ccccc1C(=O)N/N=C(\c1ccccc1)c1ccccn1)c1ccc(F)cc1	> 100 µM	> 100 µM	> 28.6 µM	> 100 µM	2.03 µM	3.89 µM	> 100 µM	> 100 µM	3.5 µM	> 100 µM	0.536 µM	0.42 µM	0.393 µM	0.207 µM	0.308 µM	0.276 µM	0.519 µM	0.169 µM	0.22 µM	0.448 µM
COc1ccccc1NC(=O)C(CC(C(=O)Nc1ccccc1OC)/C(C)=N/Nc1ccc([N+](=O)[O-])cc1[N+](=O)[O-])/C(C)=N/Nc1ccc([N+](=O)[O-])cc1[N+](=O)[O-] (stereo not given)	> 100 µM	> 100 µM	> 100 µM	> 100 µM	> 100 µM	> 100 µM	> 100 µM	> 100 µM	> 100 µM	> 100 µM										
Cc1cc([N+](=O)[O-])c(C)c(Br)c1C	> 100 µM	> 100 µM	> 100 µM	> 100 µM	> 100 µM	> 100 µM	> 100 µM	> 100 µM	> 100 µM	> 100 µM										
O=C(NCCCCCCCNC(=O)OCc1ccc2c(Cl)cc(Cl)c(O)c2n1)OCc1ccc2c(Cl)cc(Cl)c(O)c2n1	2.42 µM	1.55 µM	1.15 µM	1.62 µM	2.13 µM	1.73 µM	4.41 µM	3.22 µM	2.26 µM	0.744 µM	1.17 µM	0.378 µM	0.303 µM	0.465 µM	0.845 µM	0.419 µM	0.319 µM	1.55 µM	0.966 µM	0.273 µM
O=C(Nc1cccc(NC(=O)c2cc(=O)c3ccccc3o2)n1)c1cc(=O)c2ccccc2o1	> 100 µM	> 100 µM	48.3 µM	> 100 µM	> 100 µM	> 100 µM	> 100 µM	> 100 µM	> 100 µM	> 100 µM										
CCOc1ccc(C(CN2CCOCC2)C(C)=O)cc1OC (stereo not given)	35.8 µM	23.4 µM	2.46 µM	33.3 µM	32.8 µM	33.7 µM	13.9 µM	50.3 µM	35.2 µM	31.2 µM										
CC(NC(=O)c1ccccc1)(C(=O)O)C(=O)O	> 100 µM	> 100 µM	> 100 µM	> 100 µM	> 100 µM	> 100 µM	> 100 µM	> 100 µM	> 100 µM	> 100 µM										
O=S(=O)(c1ccc(O)c(C=Nc2ccc(Cl)cc2)c1)c1ccc(O)c(C=Nc2ccc(Cl)cc2)c1	> 100 µM	> 100 µM	> 100 µM	> 100 µM	> 100 µM	> 100 µM	> 100 µM	> 100 µM	> 100 µM	> 100 µM										
